From publication PMC7181131, “N-Pyrazinoyl Substituted Amino Acids as Potential Antimycobacterial Agents—the Synthesis and Biological Evaluation of Enantiomers” (Molecules, 2020)
In brackets after ≈: the same amount, converted by molar mass. Like-named read-outs stand apart in the source and are kept apart here.

Columns and labels:
[1] = system: Mtb H37Ra ITM-M006710 (ATCC 9431); assay: Microplate Alamar Blue Assay (MABA) microdilution, Mtb H37Ra; assay type: cell-based, Mycobacterium tuberculosis; conditions: Mycobacterium tuberculosis
[2] = system: M. smegmatis DSM 43465 (ATCC 607); assay: Microplate Alamar Blue Assay (MABA) microdilution, M. smegmatis; assay type: cell-based, Mycobacterium smegmatis; conditions: Mycolicibacterium smegmatis
[3] = system: Mycobacterium aurum DSM 43999 (ATCC 23366); assay: Microplate Alamar Blue Assay (MABA) microdilution, M. aurum; assay type: cell-based; conditions: Mycolicibacterium aurum
[4] = system: Staphylococcus epidermidis CCM 4418 (ATCC 12228); assay: Antibacterial microdilution broth method, SE; assay type: cell-based; conditions: 24 h, read-out: MIC SE
[5] = system: Candida albicans CCM 8320 (ATCC 24433); assay: Antifungal microdilution broth method, CA; assay type: cell-based; conditions: 24 h, read-out: MIC CA
[6] = system: Candida krusei CCM 8271 (ATCC 6258); assay: Antifungal microdilution broth method, CK; assay type: cell-based; conditions: Pichia kudriavzevii, 24 h, read-out: MIC CK
[7] = system: Candida parapsilosis CCM 8260 (ATCC 22019); assay: Antifungal microdilution broth method, CP; assay type: cell-based; conditions: Lodderomyces parapsilosis, 24 h, read-out: MIC CP
[8] = system: Candida tropicalis CCM 8264 (ATCC 750); assay: Antifungal microdilution broth method, CT; assay type: cell-based; conditions: 24 h, read-out: MIC CT
[9] = system: Aspergillus fumigatus ATCC 204305; assay: Antifungal microdilution broth method, AF; assay type: cell-based; conditions: ATCC204305, 48 h, read-out: MIC AF
[10] = system: Aspergillus flavus CCM 8363; assay: Antifungal microdilution broth method, AFla; assay type: cell-based; conditions: CCM8363, read after 48 h (filamentous fungi), read-out: MIC AFla
Method: 6. In vitro antifungal activity screening
Antifungal activity evaluation was performed using a microdilution broth method according to EUCAST instructions (The European Committee on Antimicrobial Susceptibility Testing) with slight modifications. Eight fungal strains (four yeast and four mould strains) were used for antifungal […]
and Trichophyton interdigitale CCM 8377 (ATCC 9533). Tested strains were purchased from the Czech Collection of Microorganisms (CCM, Brno, Czech Republic) or from the American Type Collection Cultures (ATCC, Manassas, VA, USA). Tested compounds were dissolved in DMSO and diluted in a twofold manner with RPMI 1640 medium, with glutamine and 2% glucose, buffered to pH 7.0 with MOPS (3-morpholinopropane-1-sulfonic acid). The final concentration of DMSO in the testing […]
Static incubation was performed in the dark and in humid atmosphere, at 35±2 °C, for 24 and 48 h (72 and 120 h for Trichophyton interdigitale respectively). Positive controls consisted of test microbe solely, while negative controls consisted of cultivation medium and DMSO. Visual inspection and metabolic activity indicator, Alamar Blue (ThermoFisher Scientific), were used for MIC endpoint evaluation. The internal quality standards, amphotericin B (Sigma-Aldrich) and voriconazole (Toronto research Chemicals, CA) were involved in assays (for MIC of standards see Table S5). All experiments were conducted in duplicates.
For the results to be valid, the difference in MIC for one compound determined from two parallel measurements must not be greater than one step on the dilution scale.

[11] = system: Lichtheimia corymbifera CCM 8077; assay: Antifungal microdilution broth method, LC; assay type: cell-based; conditions: CCM8077, 48 h, read-out: MIC LC
[12] = system: Trichophyton interdigitale CCM 8377 (ATCC 9533); assay: Antifungal microdilution broth method, TI; assay type: cell-based; conditions: 48 h, read-out: MIC TI
[13] = system: Klebsiella pneumoniae CCM 4415 (ATCC 10031); assay: Antibacterial microdilution broth method, KP; conditions: read after 24 h of incubation
[14] = pH 6.6, read-out: MIC Mtb H37Ra
[15] = pH 6, calculated from µg/mL, read-out: MIC Mtb H37Ra
[16] = pH 6, read-out: MIC M. smegmatis µg/mL
[17] = pH 6.6, read-out: MIC M. smegmatis
[18] = pH 6, read-out: MIC M. aurum µg/mL

Row | SMILES | MIC ([1]; pH 6) [µg/mL] | MIC ([1]; pH 6, read-out: MIC Mtb H37Ra) [µg/mL] | MIC [1, 14] [µg/mL] | MIC [1, 15] [µM] | MIC [2, 16] [µg/mL] | MIC [2, 17] [µg/mL] | MIC [3, 18] [µg/mL] | MIC ([3]; pH 6.6, read-out: MIC M. aurum) [µg/mL] | MIC [4] [µM] | MIC [5] [µM] | MIC [6] [µM] | MIC [7] [µM] | MIC [8] [µM] | MIC [9] [µM] | MIC [10] [µM] | MIC [11] [µM] | MIC [12] [µM] | MIC KP [13] [µM]
1 | COC(=O)[C@H](NC(=O)c1cnccn1)C(C)C [PC-D-Val-Me, methyl (pyrazine-2-carbonyl)-D-valinate] | ≥ 125 | ≥ 125 | ≥ 500 | ≥ 527 | ≥ 125 | ≥ 500 | ≥ 125 | ≥ 500 | > 500 | > 500 | > 500 | > 500 | > 500 | > 500 | > 500 | > 500 | > 500 | > 500
2 | CCOC(=O)CNC(=O)c1cnccn1 [PC-Gly-Et, ethyl (pyrazine-2-carbonyl)glycinate] | ≥ 125 | ≥ 125 | ≥ 500 | ≥ 598 | ≥ 125 | 250 (≈ 1200 µM) | ≥ 125 | ≥ 500 | > 500 | > 500 | > 500 | > 500 | > 500 | > 500 | > 500 | > 500 | > 500 | > 500
3 | COC(=O)[C@H](NC(=O)c1cnccn1)[C@H](C)O [PC-D-Thr-Me, methyl (pyrazine-2-carbonyl)-D-threoninate] | ≥ 500 | ≥ 500 | ≥ 500 | ≥ 2090 | ≥ 500 | ≥ 500 | ≥ 500 | ≥ 500 | > 500 | > 500 | > 500 | > 500 | > 500 | > 500 | > 500 | > 500 | > 500 | > 500
4 | COC(=O)[C@@H](NC(=O)c1cnccn1)C(C)C [PC-L-Val-Me, methyl (pyrazine-2-carbonyl)-L-valinate] | ≥ 125 | ≥ 125 | ≥ 500 | ≥ 527 | ≥ 125 | 250 (≈ 1050 µM) | ≥ 125 | ≥ 500 | > 500 | > 500 | > 500 | > 500 | > 500 | > 500 | > 500 | > 500 | > 500 | > 500
5 | O=C(N[C@@H](COCc1ccccc1)C(=O)O)c1cnccn1 [PC-L-OBn-Ser, O-benzyl-N-(pyrazine-2-carbonyl)-L-serine] | ≥ 500 | ≥ 500 | ≥ 500 | ≥ 1660 | 250 (≈ 830 µM) | ≥ 500 | 62.5 (≈ 207 µM) | ≥ 500 | > 500 | > 500 | > 500 | > 500 | > 500 | > 500 | > 500 | > 500 | > 500 | > 500
6 | COC(=O)[C@H](NC(=O)c1cnccn1)[C@H](C)OC(C)(C)C [PC-D-OtBu-Thr-Me, methyl O-(tert-butyl)-N-(pyrazine-2-carbonyl)-D-threoninate] | 62.5 | 62.5 | ≥ 500 | 212 | ≥ 500 | ≥ 500 | ≥ 500 | ≥ 500 | > 500 | > 500 | > 500 | > 500 | > 500 | > 500 | > 500 | > 500 | > 500 | > 500
